Measured values published in US11819533B2, “Compositions and methods for the treatment of fungal infections” (Cidara Therapeutics, Inc., priority 2017, dated 2023).
Entries after “also recorded” stand apart in the source; their conditions may differ. Like-named read-outs stand apart in the source and are kept apart here. Starred links: 1 amine or outer side, 2 acyl side, 3 side chain; linkers in the order of their positions; H or OH if unused. Positions of bridges follow the written chain, without caps; N, C: chain ends. Non-standard residues stand in square brackets, D forms with d. Residues, ends and D or L forms follow the SMILES beside them. *: point of attachment. Orn(4R-OH,5R-OCH2CH2NMe3+) = C[N+](C)(C)CCO[C@@H](N[*:3])[C@H](O)C[C@H](N[*:1])C(=O)[*:2]; pTerphenylCO(4''-OnC5H11) = CCCCCOc1ccc(-c2ccc(-c3ccc(C(=O)*)cc3)cc2)cc1; hTyr(3S-OH,4S-OH) = N[C@H](C(=O)O)[C@H](O)[C@@H](O)c1ccc(O)cc1; Pro(3S-OH,4S-Me) = C[C@H]1CN[C@H](C(=O)O)[C@H]1O; Hyp = O=C(O)[C@@H]1C[C@@H](O)CN1

How the values were obtained:
[1] = Dropwise addition of CD101 acetate 4 mg/mL solutions to 0.9% saline solution or PBS buffer, observed for drug insolubility; type: physicochemical; settings: 4 mg/mL in 5% dextrose and 0.5% Tween 80, pH 5.4
[2] = PBS drop test of CD101 IV formulations (Example 4); type: physicochemical; settings: 2 mg/mL in 0.50% Tween 80, 0.76% mannitol, 0.125% sodium lactate in 3.5% dextrose solution, pH ~5.5; 0.25 mL into 1 mL PBS
Method: Solubility of CD101-containing formulations with different percentages of Tween 80 (also referred to as polysorbate 80) was evaluated in a “PBS drop test.” This involved preparing a known concentration of CD101 in a formulation and injecting the formulation into PBS to visually examine for precipitation. This test was used to assess if a CD101-containing formulation would remain soluble in blood during IV infusions.
(1) 1.25% Tween 80, 5% mannitol, 0.3% glacial acetic acid, pH ˜4.5
(2) 0.50% Tween 80, 0.76% mannitol, 0.125% sodium lactate in 3.5% dextrose solution, pH ˜5.5
Different concentrations of CD101 acetate were prepared in vehicles (1) and (2) and tested for solubility in the PBS drop test.
Add dropwise the formulated solution into PBS solution (1:4 dilution). Visually observe the resulting solution upon addition for any precipitation.

cynomolgus monkeys = test: Single-dose intravenous infusion tolerability study; type: in vivo
Method: The objective of this study was to evaluate and compare the tolerability of CD101 when administered once by either a 20-minute or 60-minute intravenous infusion to cynomolgus monkeys. In addition, a vehicle similar to the intended initial clinical formulation was assessed when administered once by 20-minute intravenous infusion up to the highest feasible dose (10 mg/kg).
This study was divided into 2 phases (Table 8). In phase 1, CD101 acetate was administered in vehicle-1 (1.25% Tween 80, 5% mannitol, 0.3% glacial acetic acid adjusted to pH 4.5±0.1) as a single 20-minute (±2 minutes) intravenous infusion to 1 animal/sex/group at 0 and 30 mg/kg (Groups 1 and 2, respectively). In addition, CD101 acetate was administered in vehicle-1 as a single 60-minute (±5 minutes) intravenous infusion to 1 animal/sex/group at 0 and 30 mg/kg (Groups 3 and 4, respectively).
Dosing was staggered so that Group 5 was dosed 2 days after Groups 1-4.

[3] = PBS buffer drop test (Example 3); type: physicochemical
Method: These solutions were tested for solubility in the PBS drop test, which involved adding the solution dropwise into PBS solution (1:4.3 dilution) and visually observing the resulting solution for any precipitation. PBS buffer serves as a surrogate for plasma, and the PBS drop test is used to evaluate the potential for insolubility as the drug enters the bloodstream at the injection site.

[4] = Solubility of CD101 acetate in various media; type: physicochemical
Text: Table 1 below provides the solubility of CD101 acetate in different solutions.

[5] = Dropwise addition of CD101 acetate 4 mg/mL solutions to 0.9% saline solution or PBS buffer, observed for drug insolubility; type: physicochemical
Method: CD101 acetate 20 mg/kg dose was prepared in w/w in 5% dextrose solution (CD101 acetate at 4 mg/mL solution) for the following solutions using the salt to free base correction factor of 0.8784 for CD101 acetate: […]
0.5% w/w Tween 80 used. The pH of the solution is 5.21 (22.8 mg CD101 acetate into 5 mL 5% Dextrose with 0.5% w/w Tween 80 (0.1 g Tween 80+19.9 g 5% Dextrose))
1.0% w/w Tween 80 used. The pH of the solutions is 5.27 (22.9 mg CD101 acetate into 5 mL 5% Dextrose with 1.0% w/w Tween 80 (0.2 g Tween 80+19.8 g 5% Dextrose))
2.5% w/w Tween 80 used. The pH of the solutions is 5.29 (22.7 mg CD101 acetate into 5 mL 5% Dextrose with 2.5% w/w Tween 80 (0.5 g Tween 80+[…] 5% Dextrose))
1.0% w/w Tween 80 used. The pH of the solution was adjusted to 6.64 using 0.1 N NaOH. (22.9 mg CD101 acetate into 5 mL 5% Dextrose with 1.0% w/w Tween 80 (0.2 g Tween 80+19.8 g 5% Dextrose))

[6] = 4 mg/mL in 5% dextrose and 1.0% Tween 80, adjusted to 6.64 pH using 0.1N NaOH
[7] = 4 mg/mL in 5% dextrose and 1.0% Tween 80, pH 5.3
[8] = 4 mg/mL in 5% dextrose and 2.5% Tween 80, pH 5.3

CCCCCOc1ccc(-c2ccc(-c3ccc(C(=O)N[C@H]4C[C@@H](O)[C@@H](OCC[N+](C)(C)C)NC(=O)[C@@H]5[C@@H](O)[C@@H](C)CN5C(=O)[C@H]([C@@H](C)O)NC(=O)[C@H]([C@H](O)[C@@H](O)c5ccc(O)cc5)NC(=O)[C@@H]5C[C@@H](O)CN5C(=O)[C@H]([C@@H](C)O)NC4=O)cc3)cc2)cc1 [CD101 acetate] ({pTerphenylCO(4''-OnC5H11)}-[Orn(4R-OH,5R-OCH2CH2NMe3+)]T[Hyp][hTyr(3S-OH,4S-OH)]T[Pro(3S-OH,4S-Me)]; lactam 1-C)
Appearance after 1.5 mL added to (A) 5 mL 0.9% saline solution [1]: clear | Time the formulated solution remained soluble in PBS [2]: at least 1 hour | Tolerability in vehicle similar to intended clinical formulation (cynomolgus monkeys; 10 mg/kg (highest feasible dose), 20-minute IV infusion in vehicle-2 (0.50% Tween 80, 0.76% mannitol, 0.125% sodium lactate in 3.5% dextrose, pH 5.5)): can be administered safely | Tolerability of 20-minute versus 60-minute infusion (cynomolgus monkeys; single IV infusion 30 mg/kg in vehicle-1 (1.25% Tween 80, 5% mannitol, 0.3% glacial acetic acid, pH 4.5)): no differences that could be attributed to the duration of infusion; also recorded: no differences between the tolerability of a 20-minute and 60-minute infusion | Clinical observations (cynomolgus monkeys; single IV infusion, 30 mg/kg in vehicle-1 (20 or 60 min) or 10 mg/kg in vehicle-2 (20 min)): No other remarkable clinical observations | Appearance upon PBS drop test ([3]; 0.3% acetic acid, 1.25% Tween 80 and 5% mannitol, pH 4.5, 6.0 mg/mL, 1.4 mg/mL in PBS): Clear | Appearance upon PBS drop test ([3]; 0.3% acetic acid, 2.5% Tween 80 and 5% mannitol, pH 4.5, 4 mg/mL, 0.92 mg/mL in PBS): Clear | Appearance upon PBS drop test ([3]; 0.3% acetic acid, 2.5% Tween 80 and 5% mannitol, pH 4.5, 6.0 mg/mL, 1.4 mg/mL in PBS): Clear | Appearance upon PBS drop test ([3]; 0.3% acetic acid, 2.5% Tween 80 and 5% mannitol, pH 4.5, 8.0 mg/mL, 1.8 mg/mL in PBS): Clear | Appearance upon PBS drop test ([3]; 0.9% Saline, pH 5.3, 2.8% Tween 80, 4 mg/mL): Clear | Appearance upon PBS drop test ([3]; 0.9% Saline, pH 6.6, 2.5% Tween 80, 4 mg/mL): Clear | Appearance upon PBS drop test ([3]; 0.9% Saline, pH 7.2, 1.75% Tween 80, 4 mg/mL): Clear | Appearance upon PBS drop test ([3]; 0.9% Saline, pH 7.2, 2.5% Tween 80, 4 mg/mL): Clear | Appearance upon PBS drop test ([3]; 0.9% Saline, reverse addition (CD101 acetate and Tween 80 mixed first, then saline added), 1.75% Tween 80, 4 mg/mL): Clear | Appearance upon PBS drop test ([3]; 5% Mannitol/25 mM Na Acetate, pH 4.63, 2.5% Tween 80, 4 mg/mL): Clear | Appearance upon PBS drop test ([3]; 5% Mannitol/30 mM Na Lactate, pH 5.45, 2.5% Tween 80, 4 mg/mL): Clear | Appearance upon PBS drop test ([3]; 5% Mannitol/0.3% Acetic Acid, pH 3.54, 2.5% Tween 80, 4 mg/mL): Clear | Appearance upon PBS drop test ([3]; PBS buffer pH 7.4, pH 7.13, 1.75% Tween 80, 4 mg/mL): Clear | solubility ([4]; 15 mM potassium chloride, saline or isotonic, Potassium chloride (15 mM), read-out: Solubility): > 1700 µg/mL | solubility ([4]; 50 mM acetate buffer with 0.4% Tween 20, aqueous with cosolvent or surfactant or cyclodextrin, 50 mM Acetate buffer pH 4.5 with 0.4% Tween 20, maximum solubility not reached, read-out: Solubility): > 31300 µg/mL | solubility ([4]; 100 mM lactate buffer, aqueous buffer, Lactate buffer (100 mM), pH 6.5, maximum solubility not reached, read-out: Solubility): > 48000 µg/mL | solubility ([4]; 100 mM lactate buffer, aqueous buffer, Lactate buffer (100 mM), pH 7.4, maximum solubility not reached, read-out: Solubility): > 51000 µg/mL | solubility ([4]; 100 mM phosphate buffer, pH 7.4, aqueous buffer, read-out: Solubility): 7 to 10 µg/mL | solubility ([4]; 150 mM KCl, saline or isotonic, KCl (150 mM), read-out: Solubility): < 200 µg/mL | solubility ([4]; 150 mM potassium chloride, saline or isotonic, Potassium chloride (150 mM), read-out: Solubility): 160 µg/mL | solubility ([4]; 0.9% saline with 0.125% Tween 80, aqueous with cosolvent or surfactant or cyclodextrin, 0.9% Saline (USP) with 0.125% Tween 80, read-out: Solubility): > 800 µg/mL | solubility ([4]; 0.9% saline with 0.5% Tween 80, aqueous with cosolvent or surfactant or cyclodextrin, 0.9% Saline (USP) with 0.5% Tween 80, read-out: Solubility): > 3500 µg/mL | solubility ([4]; 0.9% saline with 1% Tween 20, aqueous with cosolvent or surfactant or cyclodextrin, 0.9% Saline (USP) with 1% Tween 20, maximum solubility not reached, read-out: Solubility): > 2600 µg/mL | solubility ([4]; 0.9% saline with 2.5% Tween 80, aqueous with cosolvent or surfactant or cyclodextrin, 0.9% Saline (USP) with 2.5% Tween 80 (polysorbate 80), read-out: Solubility): > 3500 µg/mL | solubility ([4]; 0.9% saline with 4% dodecylmaltoside and 1% Tween 20, aqueous with cosolvent or surfactant or cyclodextrin, 0.9% Saline Solution (USP), 4% dodecylmaltoside (DDM), 1% Tween 20, maximum solubility not reached, read-out: Solubility): > 10000 µg/mL | solubility ([4]; 0.9% saline with 7% tetradecylmaltoside, aqueous with cosolvent or surfactant or cyclodextrin, 0.9% Saline Solution (USP), 7% tetradecylmaltoside (TDM), maximum solubility not reached, read-out: Solubility): > 11000 µg/mL | Solubility in words ([4]; PBS buffer): nearly insoluble | solubility ([4]; PBS buffer with 2.5% Tween 80, pH 7.4, aqueous with cosolvent or surfactant or cyclodextrin, read-out: Solubility): > 4000 µg/mL | solubility ([4]; Water (USP), maximum solubility not reached, read-out: Solubility): > 100000 µg/mL | solubility ([4]; aqueous buffer, 100 mM Tris buffer, pH 7.4, maximum solubility not reached, read-out: Solubility): > 52000 µg/mL | solubility ([4]; aqueous buffer, 1:10 diluted PBS buffer, pH 7.4, maximum solubility not reached, read-out: Solubility): > 2100 µg/mL | solubility ([4]; aqueous buffer, 5% Citric Acid, maximum solubility not reached, read-out: Solubility): > 18600 µg/mL | solubility ([4]; aqueous buffer, 50-100 mM Acetate buffer, pH 4.5, maximum solubility not reached, read-out: Solubility): > 45000 µg/mL | solubility ([4]; aqueous buffer, Phosphate buffered saline (PBS buffer), pH 7.4, read-out: Solubility): 5 to 7 µg/mL | solubility ([4]; aqueous with cosolvent or surfactant or cyclodextrin, 0.3% acetic acid, 5% mannitol, 2.5% Tween 80, pH 4.5, maximum solubility not reached, read-out: Solubility): > 15000 µg/mL | solubility ([4]; aqueous with cosolvent or surfactant or cyclodextrin, 0.85% Tween 80 in PBS buffer, pH 7.4, maximum solubility not reached, read-out: Solubility): > 4100 µg/mL | solubility ([4]; aqueous with cosolvent or surfactant or cyclodextrin, 2.5% Tween 80, 5% mannitol, 0.3% acetic acid, pH 4.5, maximum solubility not reached, read-out: Solubility): > 16000 µg/mL | solubility ([4]; aqueous with cosolvent or surfactant or cyclodextrin, Lactated Ringer's Solution for Injection (USP), prepared from stock in USP water with 0.7% Tween 20, maximum solubility not reached, read-out: Solubility): > 800 µg/mL | solubility ([4]; aqueous with cosolvent or surfactant or cyclodextrin, PBS buffer with 1% Tween 20, pH 7.4, maximum solubility not reached, read-out: Solubility): > 370 µg/mL | solubility ([4]; saline or isotonic, 0.09% Saline, maximum solubility not reached, read-out: Solubility): > 1400 µg/mL | solubility ([4]; saline or isotonic, 0.225% Saline (USP), maximum solubility not reached, read-out: Solubility): > 1200 µg/mL | solubility ([4]; saline or isotonic, 0.45% Saline (USP), maximum solubility not reached, read-out: Solubility): > 1300 µg/mL | solubility ([4]; saline or isotonic, 0.9% Saline (USP), read-out: Solubility): < 180 µg/mL | solubility ([4]; saline or isotonic, 5% D-Mannitol, maximum solubility not reached, read-out: Solubility): > 4000 µg/mL | solubility ([4]; saline or isotonic, 5% Dextrose Solution (USP), maximum solubility not reached, read-out: Solubility): > 12000 µg/mL | solubility ([4]; saline or isotonic, 5% dextrose, 5% mannitol and 0.22%-0.45% Sterile Saline Solution, read-out: Solubility (soluble)): > 1000 µg/mL | solubility ([4]; saline or isotonic, Lactated Ringer's Solution for Injection (USP), read-out: Solubility): < 100 µg/mL | Appearance after 1.5 mL added to (A) 5 mL 0.9% saline solution [5, 6]: Clear | Appearance after 1.5 mL added to (B) 5 mL PBS buffer [5, 6]: Clear | Appearance after 1.5 mL added to (A) 5 mL 0.9% saline solution [5, 7]: Clear | Appearance after 1.5 mL added to (B) 5 mL PBS buffer [5, 7]: Clear | Appearance after 1.5 mL added to (A) 5 mL 0.9% saline solution [5, 8]: Clear | Appearance after 1.5 mL added to (B) 5 mL PBS buffer [5, 8]: Clear
